Experimental data: patent publication US20100144690A1, “MEDICAMENTS AND METHODS FOR PROMOTING WOUND CONTRACTION” (RENOVO LIMITED, priority 2006, published 2010)

Tests used:
[1] = cited from earlier work
incisional wounds = experiment: Incisional scarring model, macroscopic and microscopic VAS scar assessment 70 days after wounding; type: in vivo, Male Sprague Dawley rats
Protocol: The guggulsterone (Z) was diluted in a solution containing 1% v/v ethanol (absolute ethanol, 200 proof, for molecular biology, purchased from Sigma-Aldrich) in phosphate buffered saline (PBS) to produce three solutions having concentrations as follows: • 1. 1 ng/100 μl (a 32 nM solution); • 2. 10 ng/100 μl (a 321 nM solution); and • 3. 1000 ng/100 μl (a 32 μM solution). At Day 0, male Sprague Dawley rats (200-250 g) were anaesthetised, shaved and wound sites were marked according to the Renovo rat incisional wounding template (2 wound model, 2×1 cm wounds at 5 cm from the base of the skull and 1 cm from the midline in each rat). […] The scars were assessed using standard macroscopic scar assessment sheets that include a Visual Analogue Scale (VAS) to quantify the quality of the scars. […] 70 days after wounding the experimental rats were killed, and the scars resulting from treated wounds and control wounds assessed both macroscopically and microscopically. The scars of the experimental rats were photographed and assessed using macroscopic scar assessment sheets. […] The best scars (typically of small width with colour, height and contour like normal skin) were scored towards the normal skin end of the scale (the left hand side of the VAS line) and bad scars (typically large width, raised with uneven contours and whiter colour) were scored towards the bad scar end of the scale (the right hand side of the VAS line). The marks were measured from the left hand side to provide the final value for the scar assessment in centimetres (to 1 decimal place). […] Histological slides were stained using Masson's trichrome, and scarring assessed, by two independent observers, using a microscopic visual analogue scale (VAS). […]

excisional wounds = experiment: Excisional wound healing model, wound width and re-epithelialisation three days after wounding; type: in vivo, Male Sprague Dawley rats; settings: for wound width of excisional wounds: three days after wounding, p<0.05 vs controls
Protocol: The guggulsterone (Z) was diluted in a solution containing 1% v/v ethanol (absolute ethanol, 200 proof, for molecular biology, purchased from Sigma-Aldrich) in phosphate buffered saline (PBS) to produce three solutions having concentrations as follows: • 1. 1 ng/100 μl (a 32 nM solution); • 2. 10 ng/100 μl (a 321 nM solution); and • 3. 1000 ng/100 μl (a 32 μM solution). At day 0, Male Sprague Dawley rats (200-250 g) were anaesthetised, shaved and wound sites were marked according to the Renovo rat incisional and excisional wounding template (4 wound model, 2×1 cm wounds at 5 cm from the base of the skull and 1 cm from the midline in each rat and 2×5 mm excisions at 8.5 cm from the base of the skull and 1 cm from the midline of each rat). One hundred microlitres of Guggulsterone (Z) at 1 ng, 10 ng or 1000 ng in 1% v/v ethanol/PBS (EtOH/PBS), were injected intradermally at the target wound sites, A, B, C and D. The intradermal injections caused the formation of a raised bleb, which was then either immediately incised to form 1 cm long experimental wounds at wound positions A and B, or subject to a 5 mm punch biopsy, at wound positions C and D. A separate group of rats were wounded, without any injection, to act as the untreated Naïve control group in addition to the diluent injected control group. All treated wounds were re-injected again 1 day post-wounding with the appropriate treatment via either injection of […] to each of the two margins of the 1 cm wound, or via injection of 25 μl to each of the four quadrants of a 5 mm punch biopsy, and harvested at day 3 post-wounding. […] The wounds were assessed using standard macroscopic wound assessment sheets that include a Visual Analogue Scale (VAS) to quantify the quality of the wounds. The excisions and incisions were analysed microscopically, after histological processing by image analysis for re-epithelialisation (excisions only) and wound width (incisions only) to determine the role of Guggulsterone (Z) on early wound healing. […] The average wound width value was calculated from all of the wounds at each treatment group.

[2] = each concentration investigated (1, 10, 1000 ng/100 μl), 70 days post-wounding

C/C=C1\C(=O)CC2C3CCC4=CC(=O)CC[C@]4(C)C3CC[C@]12C (stereo partly drawn) [Guggulsterone (Z), (17Z)-Pregna-4,17(20)-diene-3,16-dione-4,17(20)-cis-Pregnadiene-3,16-dione]
soluble in DMSO ([1]; DMSO, room temperature): 5 mg/mL | soluble in ethanol ([1]; ethanol): soluble | inhibition of scarring, macroscopic analysis of scars (incisional wounds; [2]): significantly inhibit scarring | inhibition of scarring, microscopic analysis of scars (incisional wounds; [2]): significantly inhibit scarring | macroscopic appearance of treated scar versus naïve control scar (FIG. 3) (incisional wounds; representative images, 70 days after wounding): considerably more difficult to detect | wound width of excisional wounds (excisional wounds; 1 ng/100 μl (3.2 pmoles per cm of wound)): significantly decreased wound width | wound width of excisional wounds (excisional wounds; 10 ng/100 μl (32 pmoles per cm of wound)): significantly decreased wound width | promotion of wound contraction, by width of excisional wounds (excisional wounds; three days after wound formation): able to promote wound contraction
